What was measured:
Type in all cases: in vivo, mice (male C57BL6)
DSS-induced IBD in mice [1] = assay: Colonic histopathological evaluation (HE staining) in DSS-induced IBD mice; conditions: DSS 2.5 wt % induced IBD mice, 50 μg/kg intragastric daily, mean±SD, model group 5.6±0.7, blank 0.0±0.0
Text: (§1) The administration of a DSS solution with a specified concentration to mice can induce an acute IBD model characterized by diarrhea, hematochezia, ulcer, and granulocyte infiltration. Mice were randomly grouped according to body weights of the mice. 40 healthy male C57BL6 mice were divided into four groups each with 10 mice:
MIMP positive control group: the mice were each given a pre-administration process for one week, that is, the mice were each intragastrically administered with an MIMP solution of a mass fraction of 50 μg/kg for the first 7 days, and then from day 8, the mice were each intragastrically administered with a DSS aqueous solution of a mass fraction of 2.5 wt % (at a volume of 0.4 mL/20 g) and an MIMP solution of a mass fraction of 50 μg/kg (at a volume of 0.4 mL/20 g) every day; and […]
(§2) Experimental data in the above experimental method were expressed as (x±SD), the GraphPad Prism (ver. 8.0, GraphPad Software Inc., San Diego, Calif., USA) was used to plot a chart, the SPSS Program (ver. 25.0, SPSS Inc., Chicago, Ill., USA) was used for statistical test, and one-way ANOVA or independent two-sample t-test were used for significance test when the normality and homogeneity of variances were met. […]

DSS-induced IBD in mice [2] = assay: Colon length in DSS-induced acute IBD mouse model; conditions: DSS 2.5 wt % induced IBD mice; 50 μg/kg intragastric daily; mean±SD; model group 6.4±0.5, blank 9.5±0.5; in cm (unit assumed)
Description: as §1, with “mice: […]” for “mice:”
(§3) After DSS induction, the body weight changes, activities, and feces viscosity of the mice in each group were recorded every day. […] A mouse colon between an anus end to an ileocecal end was integrally collected, and a length of the colon was measured; and the colon was dissected along a longitudinal axis, feces therein was rinsed off, and then the colon was stored in 4% […] or frozen at −80° C.
as §2

DSS-induced IBD in mice [3] = assay: DAI scoring in DSS-induced acute IBD mouse model; conditions: DSS 2.5 wt % induced IBD mice, 50 μg/kg intragastric daily; for DAI (disease activity index) score: 7 days pre-administration then with DSS, end of experiment, mean±SD, model group 3.7±0.6, blank 0.0±0.0; for body weight of mice (effect of intervention): versus model group
Description: as §1
blank control group: the mice were each intragastrically administered with water every day at a volume of 0.4 mL/20 g;
model group: the mice were each intragastrically administered with a DSS aqueous solution of a mass fraction of 2.5 wt % consecutively for 7 days, where the DSS aqueous solution was freshly prepared and changed every day;
(§4) MIMP positive control group: the mice were each given a pre-administration process for one week, that is, the mice were each intragastrically administered with an MIMP solution of a mass fraction of 50 μg/kg for the first 7 days, and then from day 8, the mice were each intragastrically administered with a DSS aqueous solution of a mass fraction of 2.5 wt % (at a volume of 0.4 mL/20 g) and an MIMP solution of a mass fraction of 50 μg/kg (at a volume of 0.4 mL/20 g) every day; and
as §4, with “MP-C experimental” for “MIMP positive control”, “MP-C” for “MIMP”, “and” for “and then”, “day.” for “day; and”
The body weight changes of mice in each group were recorded every day to determine whether the acute IBD mouse model was successfully established.
as §3
Experimental data in the above experimental method were expressed as (x±SD), the GraphPad Prism (ver. 8.0, GraphPad Software Inc., San Diego, Calif., USA) was used to plot a chart, the SPSS Program (ver. 25.0, SPSS Inc., Chicago, Ill., USA) was used for statistical test, and one-way ANOVA or independent two-sample t-test were used for significance test when the normality and homogeneity of variances were met. It was assumed that α=0.05, and P<0.05 indicates a statistically significant difference.

IFN-γ = assay: ELISA of colonic IFN-γ expression in DSS-induced IBD mice; conditions: DSS 2.5 wt % induced IBD mice; 50 μg/kg intragastric daily; colon homogenate ELISA; mean±SD; model group 1223.1±41.5, blank 889.2±74.6
Description: as §1, with “mice: […]” for “mice:”
The colon sample frozen at −80° C. in step 1.2 was placed in an EP tube, PBS and magnetic beads were added, and then the colon sample was subjected to ultrasonic homogenization in a tissue grinder; and a resulting homogenate was centrifuged, and a resulting supernatant was collected. […] Appropriate primary and secondary antibodies were used according to the instructions, an o-phenylenediamine (OPD) chromogenic solution was used for color development, and after the reaction was terminated, reading was conducted on a microplate reader at a wavelength of 490 nm, with three replicate wells for each sample.
as §2

Row | Molecule | colonic histopathologic score (DSS-induced IBD in mice [1]) | colon length (DSS-induced IBD in mice [2]) | DAI (disease activity index) score (DSS-induced IBD in mice [3]) | body weight of mice (effect of intervention) (DSS-induced IBD in mice [3]) | expression level of IFN-γ in colon (IFN-γ)
1 | THTVGSYFVVQNGYVGAFSYALGNSEYAMSSPLGSLDGRTTRYNLL (THTVGSYFXVQNGYVGAFSXALGNSEYAMXSPLGSLDGRTTXYNLL; Sequence is synthesized; (9)..(9) Xaa can be Tyr, Val, Gly, Ser, or Gln; (20)..(20) Xaa can be Ser, Gln, Glu, or Tyr; (30)..(30) Xaa can be Asn, Thr, Ser, Pro, or Leu; (42)..(42) Xaa can be Gly, Arg, Met, or absent) [MP-C] | 1.2±0.2 | 9.2±0.2 | 2.0±0.3 | prevented the significant decrease in body weight | 1068.4±61.2
2 | THTVGSYFSVQNGYVGAFSQALGNSEYAMNSPLGSLDGRTTMYNLLGVKYLFAREDQLKKQ (peptide, listed as Lactobacillus plantarum, positive control) THTVGSYFSVQNGYVGAFSQALGNSEYAMNSPLGSLDGRTTMYNLLGVKYLFAREDQLKKQ | 1.4±0.7 | 9.5±0.3 | 2.7±0.7 | prevented the significant decrease in body weight | 1011.4±79.5

Source: patent US20220402973A1, “POLYPEPTIDE FRAGMENT C (MP-C) AND USE THEREOF” (SHANGHAI LONGXIN BIOMEDICAL TECHNOLOGY CO., LTD., priority 2021, published 2022)
